Source: patent US20190375708A1 (VenatoRx Pharmaceuticals, Inc., priority 2018, published 2019)

What was measured:
[1] = test system: HBV replication in HepAD38 cells; experiment: Anti-HBV replication assay in HepAD38 cells (QPCR of extracellular HBV DNA); format: cell-based, HBV (genotype D, serotype ayw); settings: Hepatitis B virus, 168 h, 7 days incubation, extracellular HBV DNA by QPCR, read-out: Anti-HBV EC50
Procedure, shortened: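 HepAD38 cells (HepG2 carrying tet-repressible HBV genotype D genome) induced by tetracycline withdrawal, treated 7 days at 37 °C with compound ([…], 1-log10 dilutions). Extracellular HBV DNA quantified by QPCR against a standard curve, normalised to DMSO; EC50 from 4-parameter fit.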

[2] = In vitro cytotoxicity assay (MTT cell viability) in HepG2 cells; format: cell-based, human; settings: human
Procedure, shortened: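 Parental HepG2 cells in EMEM + 10% FBS were exposed to compounds (8 half-log dilutions, 30 μM to 1.0 nM) for 7 days at 37 °C, 5% CO2. MTT was then added for 3-4 h, formazan dissolved in DMSO and absorbance read at 492 nm; CC50 came from 4-parameter fits against vehicle controls.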

## Cc1c(C(=O)Nc2ccc(F)c(F)c2)c2n(c1C(=O)C(=O)NCCN)CCCC2 [Example 741, 3-(2-((2-aminoethyl)amino)-2-oxoacetyl)-N-(3,4-difluorophenyl)-2-methyl-5,6,7,8-tetrahydroindolizine-1-carboxamide]
[1]
  EC50: 0.05 to 0.499 µM
[2]
  CC50 at 7 days: > 30 µM

## Cc1cc(NC(=O)c2c(Cl)c(C(=O)C(=O)NC(C)(C)CO)n3c2CCCC3)ccc1F [Example 490, 2-chloro-N-(4-fluoro-3-methylphenyl)-3-(2-((1-hydroxy-2-methylpropan-2-yl)amino)-2-oxoacetyl)-5,6,7,8-tetrahydroindolizine-1-carboxamide]
[1]
  EC50: < 0.05 µM
[2]
  CC50 at 7 days: > 30 µM

## Cc1cc(NC(=O)c2cc(C(=O)C(=O)NC(C)C)n3c2CCCC3)ccc1F [Example 412, N-(4-fluoro-3-methylphenyl)-3-(2-(isopropylamino)-2-oxoacetyl)-5,6,7,8-tetrahydroindolizine-1-carboxamide]
[1]
  EC50: 0.05 to 0.499 µM
[2]
  CC50 at 7 days: 5 to 30 µM

## Cc1cc(NC(=O)c2c(C)c(C(=O)C(=O)NC3(CO)CC(F)(F)C3)n3c2CCCC3)cnc1F [Example 474, 3-(2-((3,3-difluoro-1-(hydroxymethyl)cyclobutyl)amino)-2-oxoacetyl)-N-(6-fluoro-5-methylpyridin-3-yl)-2-methyl-5,6,7,8-tetrahydroindolizine-1-ccarboxamide]
[1]
  EC50: 0.5 to 1 µM
[2]
  CC50 at 7 days: > 30 µM

## Cc1cc(Cl)cc(NC(=O)c2c(C)c(C(=O)C(=O)N[C@H]3CNC(=O)C3)n(C)c2C)c1 [Example 684, (R)-N-(3-chloro-5-methylphenyl)-1,2,4-trimethyl-5-(2-oxo-2-((5-oxopyrrolidin-3-yl)amino)acetyl)-1H-pyrrole-3-carboxamide]
[1]
  EC50: < 0.05 µM
[2]
  CC50 at 7 days: > 30 µM

## O=C(N[C@H]1C[C@H](O)C1)C(=O)c1c(Cl)c(C(=O)Nc2ccc(F)c(Cl)c2)c2n1CCC2 [Example 555, 6-chloro-N-(3-chloro-4-fluorophenyl)-5-(2-(((1r,3r)-3-hydroxycyclobutyl)amino)-2-oxoacetyl)-2,3-dihydro-1H-pyrrolizine-7-carboxamide]
[1]
  EC50: 0.05 to 0.499 µM
[2]
  CC50 at 7 days: 5 to 30 µM

## CC(=O)N1C[C@@H]2[C@H](C1)[C@H]2NC(=O)C(=O)c1c(C)c(C(=O)Nc2ccc(F)c(C)c2)c(C)n1C [Example 643, 5-(2-(((1R,5S,6s)-3-acetyl-3-azabicyclo[3.1.0]hexan-6-yl)amino)-2-oxoacetyl)-N-(4-fluoro-3-methylphenyl)-1,2,4-trimethyl-1H-pyrrole-3-carboxamide]
[1]
  EC50: 0.05 to 0.499 µM
[2]
  CC50 at 7 days: > 30 µM

## Cc1cc(NC(=O)c2c(C)c(C(=O)C(=O)N[C@@H]3CCCC[C@H]3O)n(C)c2C)ccc1F [Example 136, N-(4-fluoro-3-methylphenyl)-5-(2-(((1R,2R)-2-hydroxycyclohexyl)amino)-2-oxoacetyl)-1,2,4-trimethyl-1H-pyrrole-3-carboxamide]
[1]
  EC50: < 0.05 µM
[2]
  CC50 at 7 days: > 30 µM

## Cc1cc(NC(=O)c2c(C)c(C(=O)C(=O)NC(C)(C)c3nc(CN(C)C)no3)n3c2CCCC3)ccc1F [Example 437, 3-(2-((2-(3-((dimethylamino)methyl)-1,2,4-oxadiazol-5-yl)propan-2-yl)amino)-2-oxoacetyl)-N-(4-fluoro-3-methylphenyl)-2-methyl-5,6,7,8-tetrahydroindolizine-1-carboxamide]
[1]
  EC50: 0.05 to 0.499 µM
[2]
  CC50 at 7 days: > 30 µM

## Cc1noc([C@@H](C)NC(=O)C(=O)c2c(C)c(C(=O)Nc3ccc(F)c(Cl)c3)c3n2CCCC3)n1 [Example 447, (R)-N-(3-chloro-4-fluorophenyl)-2-methyl-3-(2-((1-(3-methyl-1,2,4-oxadiazol-5-yl)ethyl)amino)-2-oxoacetyl)-5,6,7,8-tetrahydroindolizine-1-carboxamide]
[1]
  EC50: < 0.05 µM
[2]
  CC50 at 7 days: 5 to 30 µM

## Cc1c(C(=O)Nc2ncc(C(F)(F)F)s2)c2n(c1C(=O)C(=O)NC1(CO)CCC1)CCCC2 [Example 749, 3-(2-((1-(hydroxymethyl)cyclobutyl)amino)-2-oxoacetyl)-2-methyl-N-(5-(trifluoromethyl)thiazol-2-yl)-5,6,7,8-tetrahydroindolizine-1-carboxamide]
[1]
  EC50: 0.05 to 0.499 µM
[2]
  CC50 at 7 days: > 30 µM

## Cc1cc(NC(=O)c2c(C)c(C(=O)C(=O)NC3(C(F)(F)F)CC3)n(C)c2C)cnc1F [Example 234, N-(6-fluoro-5-methylpyridin-3-yl)-1,2,4-trimethyl-5-(2-oxo-2-((1-(trifluoromethyl)cyclopropyl)amino)acetyl)-1H-pyrrole-3-carboxamide]
[1]
  EC50: < 0.05 µM
[2]
  CC50 at 7 days: > 30 µM

## Cc1c(C(=O)Nc2ccnc(F)c2)c(C)n(C)c1C(=O)C(=O)NC12CC3CC(CC(O)(C3)C1)C2 [Example 188, N-(2-fluoropyridin-4-yl)-5-(2-(((1r,3s,5R,7S)-3-hydroxyadamantan-1-yl)amino)-2-oxoacetyl)-1,2,4-trimethyl-1H-pyrrole-3-carboxamide]
[1]
  EC50: 0.05 to 0.499 µM
[2]
  CC50 at 7 days: > 30 µM

## Cc1cc(NC(=O)c2c(C)c(C(=O)C(=O)N[C@H]3[C@@H]4CN(S(C)(=O)=O)C[C@@H]43)n(C)c2C)ccc1F [Example 644, N-(4-fluoro-3-methylphenyl)-1,2,4-trimethyl-5-(2-(((1R,5S,6s)-3-(methylsulfonyl)-3-aabicyclo[3.1.0]hexan-6-yl)amino)-2-oxoacetyl)-1H-pyrrole-3-carboxamide]
[1]
  EC50: < 0.05 µM
[2]
  CC50 at 7 days: 5 to 30 µM

## Cc1nnc(NC(=O)C(=O)c2c(C)c(C(=O)Nc3ccc(F)c(C)c3)c(C)n2C)o1 [Example 305, N-(4-fluoro-3-methylphenyl)-1,2,4-trimethyl-5-(2-((5-methyl-1,3,4-oxadiazol-2-yl)amino)-2-oxoacetyl)-1H-pyrrole-3-carboxamide]
[1]
  EC50: > 1 µM
[2]
  CC50 at 7 days: > 30 µM

## Cc1c(C(=O)Nc2cncc(Cl)c2)c(C)n(C)c1C(=O)C(=O)N[C@H]1CC[C@@H](O)CC1 [Example 726, N-(5-chloropyridin-3-yl)-5-(2-(((1s,4s)-4-hydroxycyclohexyl)amino)-2-oxoacetyl)-1,2,4-trimethyl-1H-pyrrole-3-carboxamide]
[1]
  EC50: < 0.05 µM
[2]
  CC50 at 7 days: > 30 µM

## Cc1c(C(=O)Nc2ccc(F)c(F)c2)c(C)n(C)c1C(=O)C(=O)Nc1ccccn1 [Example 294, N-(3,4-difluorophenyl)-1,2,4-trimethyl-5-(2-oxo-2-(pyridin-2-ylamino)acetyl)-1H-pyrrole-3-carboxamide]
[1]
  EC50: 0.5 to 1 µM
[2]
  CC50 at 7 days: > 30 µM

## Cc1cc(NC(=O)c2c(C)c(C(=O)C(=O)NC(C)(C)C)n(CCF)c2C)cnc1F [Example 225, 5-(2-(tert-butylamino)-2-oxoacetyl)-N-(6-fluoro-5-methylpyridin-3-yl)-1-(2-fluoroethyl)-2,4-dimethyl-1H-pyrrole-3-carboxamide]
[1]
  EC50: 0.5 to 1 µM
[2]
  CC50 at 7 days: > 30 µM

## Cc1c(C(=O)Nc2ccc(F)cc2)c(C)n(C)c1C(=O)C(=O)N[C@H]1CC[C@@H](O)CC1 [Example 724]
[1]
  EC50: < 0.05 µM
[2]
  CC50 at 7 days: > 30 µM

## Cc1c(C(=O)Nc2ccnc(F)c2)c(C)n(C)c1C(=O)C(=O)N[C@H](C)C(F)(F)F [Example 170, (R)—N-(2-fluoropyridin-4-yl)-1,2,4-trimethyl-5-(2-oxo-2-((1,1,1-trifluoropropan-2-yl)amino)acetyl)-1H-pyrrole-3-carboxamide]
[1]
  EC50: < 0.05 µM
[2]
  CC50 at 7 days: > 30 µM

## Cc1c(C(=O)Nc2ccc(F)c(Cl)c2)c2n(c1C(=O)C(=O)N[C@H]1COC[C@@H]1O)CCCC2 [Example 450, N-(3-chloro-4-fluorophenyl)-3-(2-(((3S,4R)-4-hydroxytetrahydrofuran-3-yl)amino)-2-oxoacetyl)-2-methyl-5,6,7,8-tetrahydroindolizine-1-carboxamide]
[1]
  EC50: 0.05 to 0.499 µM
[2]
  CC50 at 7 days: > 30 µM

## CC(C)(C)NC(=O)C(=O)c1cc(C(=O)Nc2ccc(F)c(Cl)c2)c2n1CCCC2 [Example 399, 3-(2-(tert-butylamino)-2-oxoacetyl)-N-(3-chloro-4-fluorophenyl)-5,6,7,8-tetrahydroindolizine-1-carboxamide]
[1]
  EC50: 0.05 to 0.499 µM
[2]
  CC50 at 7 days: > 30 µM

## COCC(C)(C)NC(=O)C(=O)c1c(C)c(C(=O)Nc2ccc(F)c(C)c2)c(C)n1CCF [Example 241, N-(4-fluoro-3-methylphenyl)-1-(2-fluoroethyl)-5-(2-((1-methoxy-2-methylpropan-2-yl)amino)-2-oxoacetyl)-2,4-dimethyl-1H-pyrrole-3-carboxamide]
[1]
  EC50: < 0.05 µM
[2]
  CC50 at 7 days: > 30 µM

## Cc1noc([C@H](C)NC(=O)C(=O)c2c(C)c(C(=O)Nc3ccc(F)c(F)c3)c3n2CCCC3)n1 [Example 464, (S)-N-(3,4-difluorophenyl)-2-methyl-3-(2-((1-(3-methyl-1,2,4-oxadiazol-5-yl)ethyl)amino)-2-oxoacetyl)-5,6,7,8-tetrahydroindolizine-1-carboxamide]
[1]
  EC50: 0.05 to 0.499 µM
[2]
  CC50 at 7 days: > 30 µM

## Cc1cc(NC(=O)c2c(C)c(C(=O)C(=O)N[C@H]3CCC[C@H](O)C3)n(C)c2C)ccc1F [Example 618, N-(4-fluoro-3-methylphenyl)-5-(2-(((1S,3S)-3-hydroxycyclohexyl)amino)-2-oxoacetyl)-1,2,4-trimethyl-1H-pyrrole-3-carboxamide]
[1]
  EC50: < 0.05 µM
[2]
  CC50 at 7 days: > 30 µM

## Cc1cc(NC(=O)c2c(C)c(C(=O)C(=O)N[C@@H]3CCCC[C@H]3O)n(C)c2C)cnc1F [Example 162, N-(6-fluoro-5-methylpyridin-3-yl)-5-(2-(((1R,2R)-2-hydroxycyclohexyl)amino)-2-oxoacetyl)-1,2,4-trimethyl-1H-pyrrole-3-carboxamide]
[1]
  EC50: 0.05 to 0.499 µM
[2]
  CC50 at 7 days: > 30 µM
